Data: patent US11191820B2, “Method for inducing early T memory response with short peptides anti-tumor vaccine” (OSE IMMUNOTHERAPEUTICS, priority 2015, dated 2021)
Marks after values point to notes of the source that are not given here.

What was measured:
Format in all cases: in vivo, human
[1] = test system: central memory T cells; assay: Cultured IFN-γ ELISPOT after 10-day in vitro stimulation of PBMC, phase 1/2 colon cancer trial of OSE-2101; design: key to net SFC of vaccine positive CTL responses: —, indicates SFC response did not meet criteria and vaccine response was negative; conditions: for Mean SFC: 10 colon patients
Description: (§1) Clinical study design. Both trials were designed as phase 1/2, open label, multi-center, single dose, multiple administration studies to evaluate the safety and immunogenicity of the OSE-2101 immunotherapy. Patients were treated with 1 ml OSE-2101 every 3 weeks for a total of six doses. Each dose was administered subcutaneously in the same vicinity in the deltoid or upper thigh region, or at a contralateral site if local side-effects were observed. The study duration for each completed patient was 18 weeks. Clinical responses or patient survival were not measured in either phase 1/2 studies.
(§2) Clinical sample processing. Blood or leukapheresis product was obtained from patients at the pre-treatment, the Week 9 and Week 18 time points, 3 weeks after the third and sixth dose of OSE-2101 respectively. Peripheral blood mononuclear cells (PBMC) were isolated from samples within 24 hours of collection using a FICOLL-PAQUE density gradient and cryopreserved in containers designed to ensure optimal freezing (Mr. Frosty, Nalgene). For use, cells were rapidly thawed at 37° C. then transferred to human AB serum-containing medium for work-up.
(§3) Measurement of central T memory cells responses and T effector memory cells. The CTL responses in 16 total patients (10 colon and six NSCLC) were monitored for CTL responses against each epitope and against the wild-type epitope of epitopes analogs. For each patient, the pre-treatment, Week 9 and Week 18 time points were batch-tested in the same experiment to allow pre- versus post-treatment response comparison in the same experiment. Central T memory cells responses were measured using an IFN-γ enzyme-linked immunospot (cultured ELISPOT) assay following in vitro stimulation of PBMC for 10 days with each vaccine epitope. Briefly, PBMC from each time point were stimulated on day 0 with 10 μg/ml of each epitope individually in replicate in 48-well culture plates (2×10^6 PBMC/well). All cultures were fed with rIL-2 (Endogen, Woburn, Mass.; 10 U/ml final concentration) on days 1, 4 and 7. Ten days after initiation of culture, cells were harvested and tested for activity against specific vaccine peptides and corresponding wild-type peptides of vaccine analogs in the T memory ELISPOT assay. Cells were tested in Millipore IP 96-well plates pre-coated with mouse anti-human IFN-γ antibody (Mabtech USA, Cincinnati, Ohio). Five×10^4 cells and 1.25×10^4 cells from each culture were plated in triplicate wells together with 10^5 irradiated autologous PBMC and 10 μg/ml peptide. As a control, CTL were also tested against an irrelevant HLA-A2.1-binding HBV peptide. After 20 hours incubation, T memory ELISPOT plates were developed by performing sequential incubations with biotinylated anti-human IFN-γ antibody (Mabtech USA), Avidin-Peroxidase Complex (APC, Vector Laboratories, Burlingame, Calif.), and 3-amino-9-ethyl carbazole (AEC) substrate (Sigma Aldrich, St. Louis, Mo.). Spot-forming cells (SFC) were enumerated using a computer-assisted image analysis system (Zeiss KS ELISPOT Reader, Carl Zeiss MicroImaging, Thornwood, N.J.). Data is reported as the net SFC per 5×10^4 cells after subtracting spots induced with the irrelevant HBV peptide.

[2] = test system: central memory T cells; assay: Cultured IFN-γ ELISPOT after 10-day in vitro stimulation of PBMC, phase 1/2 NSCLC trial of OSE-2101; design: key to net SFC of vaccine positive CTL responses: —, indicates SFC response did not meet criteria and vaccine response was negative
Description: as §1, §2, §3

[3] = test system: central memory T cells; assay: Central memory T cell cultured ELISPOT, phase 2 trial in advanced NSCLC
Description: CTL Immune responses measured though cultured Elispot. The immunogenicity was measured in Phase 2 clinical trial on cryopreserved PBMC from each test sample were thawed in 5% human culture medium (RPMI-1640 medium with 25 mM HEPES, supplemented with 5% human AB serum, 4 mM L-glutamine, 0.5 mM sodium pyruvate, 0.1 mM MEM non-essential amino acids, 100 μg/ml streptomycin, and 100 U/ml penicillin) containing 30 μg/ml DNAase. After centrifugation for 5 minutes at 1200 rpm, the cell pellets were resuspended in 5% human culture medium and washed 2 times. For the central Memory T cell cultured ELISPOT assay, 2×10^6/ml PBMC were placed in replicate wells in a 48-well plates and stimulated for 10 days with 10 μg/ml of each peptide. As a positive control, PBMC were also stimulated with a pool of recall viral peptides. Human rIL2 (10 U/ml) was added to the peptide-stimulated cultures at day 1, day 4 and day 7. After 10 days the stimulated cells were harvested and plated at a concentration of 5×10^4/well. Assay wells also received irradiated autologous PBMC (1×10^5/well) and 10 μg/ml peptide, either the vaccine peptide, irrelevant peptide or positive control peptides. Cells stimulated in vitro with each analog epitope were also tested against the corresponding wild-type epitope.
Data analysis and acceptance criteria. Mean and standard deviation (SD) of spots in replicate wells were calculated in all assays by transferring raw ELISPOT data from each experiment to an Excel-based computer program. Positive vaccine-induced T-cell responses were determined according to the criteria described below.
Acceptance Criteria for peptide-Induced specific T-cell response through central memory T cells: The positive criteria for CTL responses used in the phase 2 trial was identical to the criteria in the phase 1/2 trials which was established prospectively after analyzing the variability of pre-treatment responses in patients against each vaccine epitope and the irrelevant HBV control epitope. A positive peptide-induced CTL/T memory response to a given epitope met all of the following conditions: 1) was greater than 5 SFC above the irrelevant epitope response, 2) was greater than the mean SFC of the irrelevant epitope response, plus 2 SD, and 3) was two-fold greater than the SFC response in the pre-vaccination sample from the same patient, plus 2 SD. The inclusion of “plus two standard deviations” was used to accommodate the assay variability and served to increase the criteria stringency.

LLTFWNPPV [CEA.24V9 A]
Mean SFC ([1]; Week 9): 86.5 SFC per 50,000 cells | Mean SFC ([1]; Week 18): 172.0 SFC per 50,000 cells | net SFC of vaccine positive CTL responses ([1]; colon patient 551, Week 9): 42.7^d) SFC per 50,000 cells | net SFC of vaccine positive CTL responses ([1]; colon patient 551, Week 18): — | net SFC of vaccine positive CTL responses ([1]; colon patient 601, Week 9): 118.0 SFC per 50,000 cells | net SFC of vaccine positive CTL responses ([1]; colon patient 601, Week 18): 96.0 SFC per 50,000 cells | net SFC of vaccine positive CTL responses ([1]; colon patient 602, Week 9): — | net SFC of vaccine positive CTL responses ([1]; colon patient 602, Week 18): — | net SFC of vaccine positive CTL responses ([1]; colon patient 603, Week 9): 63.0 SFC per 50,000 cells | net SFC of vaccine positive CTL responses ([1]; colon patient 603, Week 18): 20.7 SFC per 50,000 cells | net SFC of vaccine positive CTL responses ([1]; colon patient 604, Week 9): 55.3 SFC per 50,000 cells | net SFC of vaccine positive CTL responses ([1]; colon patient 604, Week 18): 187.0 SFC per 50,000 cells | net SFC of vaccine positive CTL responses ([1]; colon patient 605, Week 9): 43.7 SFC per 50,000 cells | net SFC of vaccine positive CTL responses ([1]; colon patient 605, Week 18): 109.7 SFC per 50,000 cells | net SFC of vaccine positive CTL responses ([1]; colon patient 606, Week 9): — | net SFC of vaccine positive CTL responses ([1]; colon patient 606, Week 18): — | net SFC of vaccine positive CTL responses ([1]; colon patient 607, Week 9): 196.7 SFC per 50,000 cells | net SFC of vaccine positive CTL responses ([1]; colon patient 607, Week 18): 586.7 SFC per 50,000 cells | net SFC of vaccine positive CTL responses ([1]; colon patient 608, Week 9): — | net SFC of vaccine positive CTL responses ([1]; colon patient 608, Week 18): — | net SFC of vaccine positive CTL responses ([1]; colon patient 609, Week 9): — | net SFC of vaccine positive CTL responses ([1]; colon patient 609, Week 18): 31.7 SFC per 50,000 cells | No. Positive Responses ([2]; 6 NSCLC patients, Week 9): 0 | Mean SFC ([2]; 6 NSCLC patients, Week 18): 34.3 SFC per 50,000 cells | No. Positive Responses ([2]; 6 NSCLC patients, Week 18): 2 | net SFC of vaccine positive CTL responses ([2]; NSCLC patient 201, Week 9): — | net SFC of vaccine positive CTL responses ([2]; NSCLC patient 201, Week 18): — | net SFC of vaccine positive CTL responses ([2]; NSCLC patient 502, Week 9): — | net SFC of vaccine positive CTL responses ([2]; NSCLC patient 502, Week 18): — | net SFC of vaccine positive CTL responses ([2]; NSCLC patient 504, Week 9): — | net SFC of vaccine positive CTL responses ([2]; NSCLC patient 504, Week 18): 25.3^d) SFC per 50,000 cells | net SFC of vaccine positive CTL responses ([2]; NSCLC patient 505, Week 9): — | net SFC of vaccine positive CTL responses ([2]; NSCLC patient 505, Week 18): — | net SFC of vaccine positive CTL responses ([2]; NSCLC patient 532, Week 9): — | net SFC of vaccine positive CTL responses ([2]; NSCLC patient 532, Week 18): 43.3 SFC per 50,000 cells | net SFC of vaccine positive CTL responses ([2]; NSCLC patient 651, Week 9): — | net SFC of vaccine positive CTL responses ([2]; NSCLC patient 651, Week 18): — | % of patients with positive CTL/central memory T cell response ([3]; phase 2, month 9): 57% | patients with positive CTL/central memory T cell response / patients tested ([3]; phase 2, month 9): 4/7 | % of patients with positive CTL/central memory T cell response ([3]; phase 2, month 12): 50% | patients with positive CTL/central memory T cell response / patients tested ([3]; phase 2, month 12): 2/4 | % of patients with positive CTL/central memory T cell response ([3]; phase 2, week 9): 39% | patients with positive CTL/central memory T cell response / patients tested ([3]; phase 2, week 9): 13/33 | % of patients with positive CTL/central memory T cell response ([3]; phase 2, week 18): 31% | patients with positive CTL/central memory T cell response / patients tested ([3]; phase 2, week 18): 10/32 | % of patients with positive CTL/central memory T cell response ([3]; phase 2, week 30): 28% | patients with positive CTL/central memory T cell response / patients tested ([3]; phase 2, week 30): 9/23
